Laboratory results from PMC4457528, “Identification of Novel Small Molecule Inhibitors of Oncogenic RET Kinase” (PLoS ONE, 2015).
Read-outs that look alike come from different tables or passages of the source.

Experiments:
Test in all cases: KinomeScan kinase panel, single concentration 10 µM
Assay type in all cases: binding
[1] = target: T1, KinomeScan kinase panel (Homo sapiens, UniProt O75914); details: PAK3, 10 µM; read-out: score (%)
T1 construct: purchased DiscoveRx (KinomeScan)

[2] = target: T2, KinomeScan kinase panel (Homo sapiens, UniProt P36888, K663Q); details: FLT3(K663Q), 10 µM; read-out: score (%)
T2 construct: purchased DiscoveRx (KinomeScan)
T2 sequence (P36888 27-993 K663Q): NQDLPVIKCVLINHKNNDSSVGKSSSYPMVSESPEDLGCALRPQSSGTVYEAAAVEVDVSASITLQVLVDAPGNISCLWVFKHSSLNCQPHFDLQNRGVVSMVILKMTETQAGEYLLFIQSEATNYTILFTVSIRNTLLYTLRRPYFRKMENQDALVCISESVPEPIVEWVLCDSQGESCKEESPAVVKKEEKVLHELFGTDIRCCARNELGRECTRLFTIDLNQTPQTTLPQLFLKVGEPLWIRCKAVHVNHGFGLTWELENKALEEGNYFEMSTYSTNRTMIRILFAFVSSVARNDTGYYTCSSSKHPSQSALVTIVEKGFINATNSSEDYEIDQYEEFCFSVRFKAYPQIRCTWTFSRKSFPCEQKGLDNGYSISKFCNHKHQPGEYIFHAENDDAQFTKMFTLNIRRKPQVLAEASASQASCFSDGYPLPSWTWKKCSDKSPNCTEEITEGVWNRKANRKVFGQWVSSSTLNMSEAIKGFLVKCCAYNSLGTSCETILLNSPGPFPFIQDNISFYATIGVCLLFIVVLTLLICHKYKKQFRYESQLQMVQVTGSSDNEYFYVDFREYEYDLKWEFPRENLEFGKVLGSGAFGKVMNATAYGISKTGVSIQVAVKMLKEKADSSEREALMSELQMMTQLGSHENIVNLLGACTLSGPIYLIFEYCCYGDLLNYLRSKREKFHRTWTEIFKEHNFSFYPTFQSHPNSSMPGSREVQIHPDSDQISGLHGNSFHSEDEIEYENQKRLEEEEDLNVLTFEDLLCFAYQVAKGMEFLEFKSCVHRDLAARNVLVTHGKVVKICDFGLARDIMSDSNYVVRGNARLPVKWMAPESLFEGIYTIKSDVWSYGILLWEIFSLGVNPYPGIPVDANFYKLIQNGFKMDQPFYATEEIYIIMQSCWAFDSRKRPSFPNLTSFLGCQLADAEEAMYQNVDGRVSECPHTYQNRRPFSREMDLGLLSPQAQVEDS

[3] = target: T3, KinomeScan kinase panel (Homo sapiens, UniProt P36896); details: ACVR1B, 10 µM; read-out: score (%)
T3 construct: purchased DiscoveRx (KinomeScan)
T3 sequence (P36896 24-505): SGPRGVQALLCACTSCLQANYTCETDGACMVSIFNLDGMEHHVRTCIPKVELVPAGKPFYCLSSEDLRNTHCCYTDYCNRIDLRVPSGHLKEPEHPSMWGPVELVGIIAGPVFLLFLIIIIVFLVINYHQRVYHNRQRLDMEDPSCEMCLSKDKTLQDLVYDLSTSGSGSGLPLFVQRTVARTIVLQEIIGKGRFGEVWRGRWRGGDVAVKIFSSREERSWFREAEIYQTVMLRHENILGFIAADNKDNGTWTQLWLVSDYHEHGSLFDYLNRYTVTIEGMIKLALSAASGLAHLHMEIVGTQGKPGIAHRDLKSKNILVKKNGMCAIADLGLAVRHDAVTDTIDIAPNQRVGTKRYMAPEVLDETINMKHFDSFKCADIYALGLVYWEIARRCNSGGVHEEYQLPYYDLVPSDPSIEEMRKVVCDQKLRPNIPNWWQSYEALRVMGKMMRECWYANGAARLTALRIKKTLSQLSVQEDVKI

[4] = target: T4, KinomeScan kinase panel (Homo sapiens, UniProt P68400); details: CSNK2A1, 10 µM; read-out: score (%)
T4 construct: purchased DiscoveRx (KinomeScan)

[5] = target: T5, KinomeScan kinase panel (Homo sapiens, UniProt Q16659); details: ERK3, 10 µM; read-out: score (%)
T5 construct: purchased DiscoveRx (KinomeScan)

[6] = target: T6, KinomeScan kinase panel (Homo sapiens, UniProt Q86UE8); details: read-out: score (%)
T6 construct: purchased DiscoveRx (KinomeScan)

[7] = target: T7, KinomeScan kinase panel (Homo sapiens, UniProt Q8NFD2); details: ANKK1, 10 µM; read-out: score (%)
T7 construct: purchased DiscoveRx (KinomeScan)
T7 sequence (Q8NFD2 1-765): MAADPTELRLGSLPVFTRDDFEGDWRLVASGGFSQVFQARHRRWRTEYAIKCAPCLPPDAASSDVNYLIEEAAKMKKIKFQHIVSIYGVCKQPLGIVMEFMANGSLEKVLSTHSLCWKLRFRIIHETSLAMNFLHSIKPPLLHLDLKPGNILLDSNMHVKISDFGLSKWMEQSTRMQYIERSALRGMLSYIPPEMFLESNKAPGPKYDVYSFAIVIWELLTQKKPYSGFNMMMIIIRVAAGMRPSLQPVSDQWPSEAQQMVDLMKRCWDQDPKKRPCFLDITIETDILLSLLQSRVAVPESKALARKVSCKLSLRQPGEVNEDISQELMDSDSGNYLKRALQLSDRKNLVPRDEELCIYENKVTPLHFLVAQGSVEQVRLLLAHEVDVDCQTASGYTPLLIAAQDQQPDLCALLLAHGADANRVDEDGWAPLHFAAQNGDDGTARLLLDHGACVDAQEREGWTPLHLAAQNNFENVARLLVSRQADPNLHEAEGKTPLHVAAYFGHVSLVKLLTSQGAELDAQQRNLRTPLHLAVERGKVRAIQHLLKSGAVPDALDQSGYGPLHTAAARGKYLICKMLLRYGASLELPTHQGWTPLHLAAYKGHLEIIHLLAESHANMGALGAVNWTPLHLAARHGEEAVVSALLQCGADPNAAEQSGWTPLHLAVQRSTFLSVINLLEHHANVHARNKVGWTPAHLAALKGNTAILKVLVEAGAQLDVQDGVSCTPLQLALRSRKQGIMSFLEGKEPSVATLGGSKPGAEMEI

[8] = target: T8, KinomeScan kinase panel (Homo sapiens, UniProt Q96NX5); details: CAMK1G, 10 µM; read-out: score (%)
T8 construct: purchased DiscoveRx (KinomeScan)

[9] = target: T9, KinomeScan kinase panel (Homo sapiens, UniProt Q9BVS4); details: read-out: score (%)
T9 construct: purchased DiscoveRx (KinomeScan)

[10] = target: T10, KinomeScan kinase panel (Homo sapiens, UniProt Q9H2G2); details: 10 µM, read-out: score (%)
T10 construct: purchased DiscoveRx (KinomeScan)
T10 sequence (Q9H2G2 whole entry): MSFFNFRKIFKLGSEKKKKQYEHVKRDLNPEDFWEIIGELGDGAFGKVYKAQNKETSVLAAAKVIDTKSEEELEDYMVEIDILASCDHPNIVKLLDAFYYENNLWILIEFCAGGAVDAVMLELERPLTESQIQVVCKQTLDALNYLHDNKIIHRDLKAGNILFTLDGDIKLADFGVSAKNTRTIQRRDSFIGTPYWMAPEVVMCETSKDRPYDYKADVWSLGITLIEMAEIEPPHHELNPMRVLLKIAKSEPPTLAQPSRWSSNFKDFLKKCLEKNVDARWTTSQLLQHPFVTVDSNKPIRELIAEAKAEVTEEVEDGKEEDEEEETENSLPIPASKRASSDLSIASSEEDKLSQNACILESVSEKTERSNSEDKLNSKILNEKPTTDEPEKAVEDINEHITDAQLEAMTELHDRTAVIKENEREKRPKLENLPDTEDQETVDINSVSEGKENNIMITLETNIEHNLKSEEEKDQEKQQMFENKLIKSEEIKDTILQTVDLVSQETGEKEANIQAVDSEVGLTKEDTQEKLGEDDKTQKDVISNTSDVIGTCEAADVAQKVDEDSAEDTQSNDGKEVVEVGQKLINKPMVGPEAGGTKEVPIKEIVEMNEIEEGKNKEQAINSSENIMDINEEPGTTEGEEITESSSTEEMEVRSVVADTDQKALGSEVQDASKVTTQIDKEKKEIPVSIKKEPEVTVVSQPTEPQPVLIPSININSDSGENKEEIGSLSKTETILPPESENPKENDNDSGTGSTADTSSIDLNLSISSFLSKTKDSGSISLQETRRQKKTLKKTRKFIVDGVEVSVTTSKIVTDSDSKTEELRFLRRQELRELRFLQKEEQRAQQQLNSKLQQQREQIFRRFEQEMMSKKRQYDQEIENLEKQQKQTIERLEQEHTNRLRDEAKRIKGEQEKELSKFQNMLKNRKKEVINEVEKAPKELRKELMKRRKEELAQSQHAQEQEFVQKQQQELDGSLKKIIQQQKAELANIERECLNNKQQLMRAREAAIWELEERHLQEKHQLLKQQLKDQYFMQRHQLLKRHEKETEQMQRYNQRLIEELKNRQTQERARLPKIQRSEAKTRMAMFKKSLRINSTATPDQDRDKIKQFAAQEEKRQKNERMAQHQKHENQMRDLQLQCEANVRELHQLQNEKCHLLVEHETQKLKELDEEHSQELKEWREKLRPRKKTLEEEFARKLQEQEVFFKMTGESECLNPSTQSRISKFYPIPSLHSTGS

T1 sequence (O75914 whole entry): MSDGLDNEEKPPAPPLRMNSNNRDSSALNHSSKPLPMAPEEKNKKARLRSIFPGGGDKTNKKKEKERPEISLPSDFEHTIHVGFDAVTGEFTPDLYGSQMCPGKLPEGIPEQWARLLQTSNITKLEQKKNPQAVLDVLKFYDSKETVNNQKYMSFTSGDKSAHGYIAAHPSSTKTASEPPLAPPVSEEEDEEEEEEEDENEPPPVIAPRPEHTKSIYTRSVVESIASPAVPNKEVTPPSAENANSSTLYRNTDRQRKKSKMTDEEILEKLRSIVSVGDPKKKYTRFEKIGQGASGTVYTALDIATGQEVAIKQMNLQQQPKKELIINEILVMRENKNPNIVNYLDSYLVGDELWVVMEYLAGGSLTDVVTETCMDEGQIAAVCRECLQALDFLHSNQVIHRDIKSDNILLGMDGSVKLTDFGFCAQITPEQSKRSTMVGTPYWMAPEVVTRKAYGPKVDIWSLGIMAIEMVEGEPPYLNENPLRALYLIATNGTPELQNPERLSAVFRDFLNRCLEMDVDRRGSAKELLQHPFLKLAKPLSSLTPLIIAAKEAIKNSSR
T9 sequence (Q9BVS4 whole entry): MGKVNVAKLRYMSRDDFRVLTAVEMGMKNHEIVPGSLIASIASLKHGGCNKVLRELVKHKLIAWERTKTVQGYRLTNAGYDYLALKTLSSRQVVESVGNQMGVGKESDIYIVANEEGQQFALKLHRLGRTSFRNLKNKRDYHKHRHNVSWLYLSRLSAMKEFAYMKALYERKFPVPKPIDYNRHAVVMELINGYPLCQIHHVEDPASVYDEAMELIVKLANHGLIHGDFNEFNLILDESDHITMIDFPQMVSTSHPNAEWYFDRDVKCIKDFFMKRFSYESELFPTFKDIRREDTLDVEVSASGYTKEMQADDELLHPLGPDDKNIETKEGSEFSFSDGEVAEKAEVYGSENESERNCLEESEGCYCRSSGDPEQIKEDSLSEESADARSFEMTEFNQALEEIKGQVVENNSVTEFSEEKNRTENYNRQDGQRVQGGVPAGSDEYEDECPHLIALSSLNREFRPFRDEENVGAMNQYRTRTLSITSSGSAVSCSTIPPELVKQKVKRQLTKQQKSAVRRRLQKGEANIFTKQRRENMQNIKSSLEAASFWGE
T4 sequence (P68400 whole entry): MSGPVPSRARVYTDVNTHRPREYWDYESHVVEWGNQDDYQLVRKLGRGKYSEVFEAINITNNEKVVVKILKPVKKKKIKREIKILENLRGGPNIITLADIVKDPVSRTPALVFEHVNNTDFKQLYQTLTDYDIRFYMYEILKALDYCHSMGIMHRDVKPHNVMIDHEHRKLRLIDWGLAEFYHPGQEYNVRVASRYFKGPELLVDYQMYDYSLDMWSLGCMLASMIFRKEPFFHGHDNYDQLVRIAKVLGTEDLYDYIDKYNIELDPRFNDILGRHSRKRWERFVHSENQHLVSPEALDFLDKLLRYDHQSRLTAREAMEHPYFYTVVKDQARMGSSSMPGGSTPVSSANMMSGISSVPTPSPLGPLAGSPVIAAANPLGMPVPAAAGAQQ
T5 sequence (Q16659 whole entry): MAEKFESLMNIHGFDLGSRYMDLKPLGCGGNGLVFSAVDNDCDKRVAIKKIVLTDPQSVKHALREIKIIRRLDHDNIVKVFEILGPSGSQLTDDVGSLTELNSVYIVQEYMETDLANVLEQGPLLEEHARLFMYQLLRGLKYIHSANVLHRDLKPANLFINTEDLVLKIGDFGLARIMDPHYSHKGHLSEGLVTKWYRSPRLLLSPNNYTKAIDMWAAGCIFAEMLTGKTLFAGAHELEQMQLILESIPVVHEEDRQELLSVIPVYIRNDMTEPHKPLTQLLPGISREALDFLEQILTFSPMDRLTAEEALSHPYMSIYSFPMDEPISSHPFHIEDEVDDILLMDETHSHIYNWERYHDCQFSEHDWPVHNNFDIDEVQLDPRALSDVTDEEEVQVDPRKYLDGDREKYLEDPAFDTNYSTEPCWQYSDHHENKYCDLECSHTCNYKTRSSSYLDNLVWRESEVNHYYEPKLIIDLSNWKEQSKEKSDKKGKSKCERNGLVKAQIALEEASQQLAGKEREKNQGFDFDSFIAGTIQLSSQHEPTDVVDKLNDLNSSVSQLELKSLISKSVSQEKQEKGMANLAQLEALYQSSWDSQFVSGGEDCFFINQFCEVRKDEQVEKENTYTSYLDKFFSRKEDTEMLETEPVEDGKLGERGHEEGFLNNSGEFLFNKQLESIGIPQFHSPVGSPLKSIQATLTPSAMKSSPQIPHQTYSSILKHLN
T6 sequence (Q86UE8 whole entry): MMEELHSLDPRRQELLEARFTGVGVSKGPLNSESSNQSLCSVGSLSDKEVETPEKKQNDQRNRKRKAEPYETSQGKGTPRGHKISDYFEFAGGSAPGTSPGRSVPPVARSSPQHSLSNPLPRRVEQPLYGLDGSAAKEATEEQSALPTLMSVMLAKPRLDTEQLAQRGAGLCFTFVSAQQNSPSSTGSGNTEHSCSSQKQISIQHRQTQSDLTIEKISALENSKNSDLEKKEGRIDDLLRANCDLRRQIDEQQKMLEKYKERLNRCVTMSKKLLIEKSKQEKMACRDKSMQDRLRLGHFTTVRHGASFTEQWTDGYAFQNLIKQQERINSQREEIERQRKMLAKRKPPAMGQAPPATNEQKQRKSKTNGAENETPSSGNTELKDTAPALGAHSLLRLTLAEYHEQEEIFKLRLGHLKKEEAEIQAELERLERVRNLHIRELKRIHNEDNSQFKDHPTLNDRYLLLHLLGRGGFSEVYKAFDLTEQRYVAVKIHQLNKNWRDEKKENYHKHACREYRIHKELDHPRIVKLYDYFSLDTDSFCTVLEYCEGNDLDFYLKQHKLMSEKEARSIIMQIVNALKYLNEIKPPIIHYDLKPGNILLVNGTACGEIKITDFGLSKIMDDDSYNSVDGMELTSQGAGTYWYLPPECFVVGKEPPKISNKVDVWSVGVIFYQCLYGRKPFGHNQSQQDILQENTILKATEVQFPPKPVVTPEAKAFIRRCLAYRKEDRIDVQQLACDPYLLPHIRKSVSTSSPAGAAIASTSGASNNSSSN
T8 sequence (Q96NX5 whole entry): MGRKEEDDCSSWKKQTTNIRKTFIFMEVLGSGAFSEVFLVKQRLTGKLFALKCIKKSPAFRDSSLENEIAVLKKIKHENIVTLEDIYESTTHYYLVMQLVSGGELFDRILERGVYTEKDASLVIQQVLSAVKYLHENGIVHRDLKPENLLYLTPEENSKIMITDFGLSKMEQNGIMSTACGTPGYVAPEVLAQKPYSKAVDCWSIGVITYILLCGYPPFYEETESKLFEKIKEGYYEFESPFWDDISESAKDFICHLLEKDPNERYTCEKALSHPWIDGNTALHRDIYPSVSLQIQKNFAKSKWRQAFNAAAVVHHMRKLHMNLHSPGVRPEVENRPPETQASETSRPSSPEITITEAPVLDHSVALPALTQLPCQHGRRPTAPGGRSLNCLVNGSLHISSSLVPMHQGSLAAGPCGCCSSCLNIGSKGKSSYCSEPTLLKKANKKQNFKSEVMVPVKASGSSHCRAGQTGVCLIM

| Structure (SMILES) | remaining binding at 10 µM [1] | remaining binding at 10 µM [2] | remaining binding at 10 µM [3] | remaining binding at 10 µM [4] | remaining binding at 10 µM [5] | remaining binding at 10 µM ([6]; kinase TLK2, 10 µM) | remaining binding at 10 µM [7] | remaining binding at 10 µM [8] | remaining binding at 10 µM ([9]; RIOK2, 10 µM) | remaining binding at 10 µM ([10]; kinase SLK) | remaining binding at 10 µM ([6]; TLK2, 10 µM) | remaining binding at 10 µM ([10]; SLK) | remaining binding at 10 µM ([9]; kinase RIOK2, 10 µM) |
| --- | --- | --- | --- | --- | --- | --- | --- | --- | --- | --- | --- | --- | --- |
| CCN1CCN(Cc2ccc(NC(=O)c3ccc(C)c(NC(=O)c4cncc(-c5cccs5)c4)c3)cc2C(F)(F)F)CC1 [ALW-II-41-27] | > 30% | 1% | > 30% | > 30% | > 30% | > 30% | 1.4% | > 30% | > 30% | 5% | – | – | – |
| CCN1CCN(Cc2ccc(NC(=O)c3ccc(C)c(/C=C/c4cnc5[nH]ccc5c4Cl)c3)cc2C(F)(F)F)CC1 [HG-6-63-01, (E)-3-(2-(4-chloro-1H-pyrrolo[2,3-b]pyridin-5-yl)vinyl)-N-(4-((4-ethylpiperazin-1-yl)methyl)-3-(trifluoromethyl)phenyl)-4-methylbenzamide] | 30% | 0% | > 30% | 15% | > 30% | – | 0.4% | > 30% | 33% | – | > 30% | 0.85% | – |
| CCN1CCN(Cc2ccc(NC(=O)c3ccc(C)c(C#Cc4cccnc4)c3)cc2C(F)(F)F)CC1 [XMD15-44] | 3.3% | 0% | > 30% | > 30% | > 30% | 100% | 8.2% | > 30% | – | 0.1% | – | – | 0.5% |
